In patent US20160128982A1, “ANTIMICROBIAL COMPOSITIONS AND METHODS OF USE” (DERMCARE-VET PTY LTD, priority 2013, published 2016):

Key:
[1] = test system: Staphylococcus pseudintermedius; assay: Well diffusion, zone of inhibition on Mueller-Hinton agar; assay type: cell-based; conditions: 37° C. 18 to 24 hours; for Zone of Inhibition: 50 μL per well
Experimental: (§1) 1. To determine whether propylene glycol was a suitable solvent to solubilize miconazole. A Mueller-Hinton agar (MH) plate containing a well was inoculated with Staphylococcus pseudintermedius and a Sabouraud dextrose agar (SAB) plate containing a 6 mm well was inoculated with Malassezia pachydermatis. The wells were filled with 50 μL propylene glycol and the MH plate were incubated at 37° C. for 18 to 24 hours and the SAB plate was incubated at 30 to 35° C. for 72 hours. The plates were then observed for any inhibition of microbial growth around the well.
(§2) 2. To determine suitable concentrations of miconazole and PHMB, MH agar plates containing wells were inoculated with S. pseudintermedius and SAB plates containing wells were inoculated with M. pachydermatis. The wells were filled with 50 μL of varying concentrations of miconazole or PHMB. The MH plates were incubated at 37° C. for 18 to 24 hours and the SAB plates were incubated at 30 to 35° C. for 48 hours.
(§3) After incubation, the diameter of the zone of inhibition around the well was measured.

[2] = test system: Staphylococcus pseudintermedius; assay: Agar dilution MIC and FICI (Example 2); assay type: cell-based
Experimental: (§4) The MIC of PHMB, miconazole and mixtures of PHMB and miconazole were determined by adding varying concentrations of each component or their combination to molten Mueller-Hinton agar and SAB agar. The miconazole was initially dissolved in propylene glycol but dilutions were prepared by diluting this solution with water.
(§5) The concentrations of miconazole, PHMB or combination of PHMB and miconazole tested included:
(§6) A drop of microbial suspension containing one of: • a) Staphylococcus pseudintermedius and • b) Candida albicans
(§7) was added to a MH agar plate and SAB plate respectively of each concentration of each concentration of miconazole, PHMB and combinations thereof and the MH plates were incubated for 24 to 48 hours at 37° C. and the SAB plates were incubated at 20 to 35° C. for 48 hours. Two isolates of Staphylococcus pseudintermedins of different origin were used.
(§8) After incubation the plates were examined to determine the lowest concentration that inhibited growth of the microbe.
(§9) The concentrations were used to calculate the Fractional Inhibitory Concentration Index (FICI) which is a measure of synergism between the components in the combination. The FICI is calculated using the following equations:
(§10) FICMICONAZOLE=MICMICONAZOLE+PHMB/MICMICONAZOLE
(§11) FICPHMB=MICPHMB+MICONAZOLE/MICPHMB
(§12) FICI=FICMICONAZOLE+FICPHMB
(§13) FICI≦0.5 Indicates synergy between components
(§14) FICI>0.5-4.0 indicates no interaction between components
(§15) FICI>4.0 indicates antagonism between components

Candida albicans = assay: Agar dilution MIC and FICI (Example 2); assay type: cell-based; conditions: miconazole alone
Experimental: as §4, §5, §6, §7, §8, §9, §10, §11, §12, §13, §14, §15

[3] = test system: M. pachydermatis isolates; assay: Agar dilution MIC and FICI, isolates from dogs (Example 3); assay type: cell-based, Malassezia pachydermatis; conditions: miconazole alone
Experimental: (§16) The miconazole was initially dissolved in propylene glycol but dilutions were prepared by diluting this solution with water. […] Two isolates of Staphylococcus pseudintermedins of different origin were used. After incubation the plates were examined to determine the lowest concentration that inhibited growth of the microbe. The concentrations were used to calculate the Fractional Inhibitory Concentration Index (FICI) which is a measure of synergism between the components in the combination. The FICI is calculated using the following equations: […]≦0.5 Indicates synergy between components FICI>0.5-4.0 indicates no interaction between components FICI>4.0 indicates antagonism between components The procedure from Example 2 was repeated with different bacterial and fungal isolates obtained from dogs with bacterial or fungal infections. Eight S. pseudintermedius isolates obtained from eight different dogs and three M. pachydermatis isolates from three different dogs were analysed.

Malassezia pachydermatis = assay: Well diffusion, zone of inhibition on Sabouraud dextrose agar; assay type: cell-based
Experimental: as §1, §2, §3

[4] = test system: S. pseudintermedius isolates; assay: Agar dilution MIC and FICI, isolates from dogs (Example 3); assay type: cell-based, Staphylococcus pseudintermedius; conditions: miconazole alone
Experimental: as §16

| MIC Micon % ([2]; miconazole alone, two isolates of different origin) | MIC Micon % (Candida albicans) | MIC miconazole ([3]; isolate 1) | MIC miconazole ([3]; isolate 2) | MIC miconazole ([3]; isolate 3) | MIC miconazole ([4]; isolate 1) | MIC miconazole ([4]; isolate 2) | MIC miconazole ([4]; isolate 3) | MIC miconazole ([4]; isolate 4) | MIC miconazole ([4]; isolate 5) | MIC miconazole ([4]; isolate 6) | MIC miconazole ([4]; isolate 7) | MIC miconazole ([4]; isolate 8) | SMILES | Zone of Inhibition ([1]; Miconazole concentration 0.0009%) | Zone of Inhibition ([1]; Miconazole concentration 0.0019%) | Zone of Inhibition ([1]; Miconazole concentration 0.0039%) | concentration at which an antimicrobial effect begins ([2]; used alone) | Zone of Inhibition (Malassezia pachydermatis; Miconazole concentration 0.0009%, 50 μL per well, 30 to 35° C. 48 hours) | inhibition of microbial growth around the well ([1]; 50 μL propylene glycol per well) | inhibition of microbial growth around the well (Malassezia pachydermatis; 50 μL propylene glycol in 6 mm well, 30 to 35° C. 72 hours) |
| --- | --- | --- | --- | --- | --- | --- | --- | --- | --- | --- | --- | --- | --- | --- | --- | --- | --- | --- | --- | --- |
| 0.00012% | 0.00095% | 0.00003% | 0.00006% | 0.000015% | 0.00012% | 0.00012% | 0.00012% | 0.00012% | 0.00012% | 0.00012% | 0.00012% | 0.00012% | Clc1ccc(COC(Cn2ccnc2)c2ccc(Cl)cc2Cl)c(Cl)c1 (centres unmarked) [miconazole] | 14-17 mm | 14-16 mm | 17-18 mm | about 0.00012 wt % | 25 mm | – | – |
| – | – | – | – | – | – | – | – | – | – | – | – | – | CC(O)CO (centres unmarked) [propylene glycol] | – | – | – | – | – | No zone of inhibition | No zone of inhibition |
